BindingDB's records for doi:10.1016/0960-894X(96)00069-8 (1996)

Biological target: Carbonic anhydrase 2 (Homo sapiens, UniProt P00918)
Assay: Kinetic constant for binding human carbonic anhydrase II ([…])
Settings: read-out: kon (M-1-s-1)

- kon: 3.61e+07 M⁻¹ s⁻¹
SMILES: NS(=O)(=O)c1ccc(C(=O)NCC(=O)O)cc1 [(4-Sulfamoyl-benzoylamino)-acetic acid]
